The text below walks through data of US9180120B2, “Substituted N-phenethyltriazoloneacetamides and use thereof” (Bayer Intellectual Property GmbH, priority 2010, dated 2015).

One assay has as its target human V1a receptor (Homo sapiens (Human), UniProt P37288). The assay is described as follows: Cellular in vitro assay for determining the vasopressin receptor activity (aequorin luminescence, CHO cells, antagonism of [Arg8]-vasopressin). It is filed as cell-based. The conditions noted are these: cell line transfected with the human V1a receptor; agonist [Arg8]-vasopressin; read-out: IC50 hV1a. The text has this: (§1) • EDTA ethylenediaminetetraacetic acid • DMEM Dulbecco's Modified Eagle Medium • FCS foetal calf serum • HEPES 4-(2-hydroxyethyl)-1-piperazineethanesulphonic acid • SmGM Smooth Muscle Cell Growth Media • Tris-HCl 2-amino-2-(hydroxymethyl)-1,3-propanediol hydrochloride B-1. Cellular in vitro Assay for Determining the Vasopressin Receptor Activity
(§2) The identification of agonists and antagonists of the V1a and V2 vasopressin receptors from humans and rats and also the quantification of the activity of the compounds of the invention takes place using recombinant cell lines. […] In addition, the cells are stably transfected with the human or rat V1a or V2 receptors.
(§3) On the day before the assay, the cells are plated out in culture medium (DMEM, 10% FCS, 2 mM glutamine, 10 mM HEPES) in 384-well microtitre plates and kept in a cell incubator (96% humidity, 5% v/v CO2, 37° C.). On the day of the assay, the culture medium is replaced by a Tyrode solution (140 mM NaCl, 5 mM KCl, 1 mM MgCl2, 2 mM CaCl2, 20 mM glucose, 20 mM HEPES), which additionally contains the cofactor coelenterazine (50 μM), and the microtitre plate is then incubated for a further 3-4 hours. The test substances in various concentrations are placed for 10 to 20 minutes in the wells of the microtitre plate before the agonist [Arg^8]-vasopressin is added, and the resulting light signal is measured immediately in the luminometer.

The next assay has as its target human V2 receptor (Homo sapiens (Human), UniProt P30518). The assay is described as above. It is filed as cell-based. The conditions noted are these: cell line transfected with the human V2 receptor; agonist [Arg8]-vasopressin; read-out: IC50 hV2.
Source text: as §1, §2, §3

Chain of human V1a receptor (P37288 whole entry): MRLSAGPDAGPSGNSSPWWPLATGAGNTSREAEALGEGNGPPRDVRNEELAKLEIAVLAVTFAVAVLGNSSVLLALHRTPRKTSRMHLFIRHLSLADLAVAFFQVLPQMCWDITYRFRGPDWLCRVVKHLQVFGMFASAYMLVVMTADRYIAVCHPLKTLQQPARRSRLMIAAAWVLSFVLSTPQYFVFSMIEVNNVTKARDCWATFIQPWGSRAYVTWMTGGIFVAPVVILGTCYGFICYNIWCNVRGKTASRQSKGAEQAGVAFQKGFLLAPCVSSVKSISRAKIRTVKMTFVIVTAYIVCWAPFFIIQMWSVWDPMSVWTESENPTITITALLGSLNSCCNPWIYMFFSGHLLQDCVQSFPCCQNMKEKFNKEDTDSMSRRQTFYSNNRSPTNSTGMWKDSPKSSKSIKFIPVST
Chain of human V2 receptor (P30518 whole entry): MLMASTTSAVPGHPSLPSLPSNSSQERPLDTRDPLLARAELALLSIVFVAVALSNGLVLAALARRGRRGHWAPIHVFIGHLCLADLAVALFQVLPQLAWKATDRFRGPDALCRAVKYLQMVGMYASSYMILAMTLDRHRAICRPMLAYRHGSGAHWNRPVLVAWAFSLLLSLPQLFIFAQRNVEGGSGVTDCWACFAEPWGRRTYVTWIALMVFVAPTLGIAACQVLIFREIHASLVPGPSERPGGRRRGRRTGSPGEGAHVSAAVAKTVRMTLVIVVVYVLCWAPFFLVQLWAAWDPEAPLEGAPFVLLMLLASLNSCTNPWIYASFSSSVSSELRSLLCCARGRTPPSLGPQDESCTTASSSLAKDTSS

Take `NC(=O)OCC(CNC(=O)Cn1nc(-c2ccc(Cl)cc2)n(C[C@H](O)C(F)(F)F)c1=O)c1ccccc1Cl` (single isomer, unassigned) [Example 6]: the IC50 – broadly, the point on the concentration scale where inhibition reaches its midpoint – on human V1a receptor was 12 nM. With `CS(=O)(=O)NC(CNC(=O)Cn1nc(-c2ccc(Cl)cc2)n(C[C@H](O)C(F)(F)F)c1=O)c1ccccc1Cl` (stereo partly drawn) [Example 25, N-{2-(2-Chlorophenyl)-2-[(methylsulphonyl)amino]ethyl}-2-{3-(4-chlorophenyl)-5-oxo-4-[(2S)-3,3,3-trifluoro-2-hydroxypropyl]-4,5-dihydro-1H-1,2,4-triazol-1-yl}acetamide], the IC50 is 8 nM on human V1a receptor and 5 nM on human V2 receptor.

With `NC(=O)OC(CNC(=O)Cn1nc(-c2ccc(Cl)cc2)n(C[C@H](O)C(F)(F)F)c1=O)c1cccc(Cl)c1Cl` (single isomer, unassigned) [Example 52], the IC50 on human V1a receptor worked out at 7 nM; at human V2 receptor it was 2 nM. For `CC(C)(C)OC(=O)NC(CNC(=O)Cn1nc(-c2ccc(Cl)s2)n(Cc2ccccc2F)c1=O)c1ccccc1C(F)(F)F` (racemic) [Example 67, tert-Butyl {2-({[3-(5-chloro-2-thienyl)-4-(2-fluorobenzyl)-5-oxo-4,5-dihydro-1H-1,2,4-triazol-1-yl]acetyl}amino)-1-[2-(trifluoromethyl)phenyl]ethyl}carbamate] the same measures were 18 nM and 300 nM. On to `CCNC(=O)OCC(CNC(=O)Cn1nc(-c2ccc(Cl)cc2)n(C[C@H](O)C(F)(F)F)c1=O)c1cccc(C(F)(F)F)c1` (stereo partly drawn) [Example 10, 3-[({3-(4-Chlorophenyl)-5-oxo-4-[(2S)-3,3,3-trifluoro-2-hydroxypropyl]-4,5-dihydro-1H-1,2,4-triazol-1-yl}acetyl)amino]-2-[3-(trifluoromethyl)phenyl]propyl ethylcarbamate], for which the values for the IC50 at human V1a receptor and on human V2 receptor were 24 nM and 9 nM, respectively.

As for `NC(=O)NC(CNC(=O)Cn1nc(-c2ccc(Cl)cc2)n(C[C@H](O)C(F)(F)F)c1=O)c1ccccc1Cl` (single isomer, unassigned) [Example 33], the concentration for half-maximal inhibition (IC50) is 17 nM at human V1a receptor and 8 nM on human V2 receptor.

For `O=C(Cn1nc(-c2ccc(Cl)cc2)n(C[C@H](O)C(F)(F)F)c1=O)N[C@@H](CO)Cc1cccc(C(F)(F)F)c1` [Example 53, 2-{3-(4-Chlorophenyl)-5-oxo-4-[(2S)-3,3,3-trifluoro-2-hydroxypropyl]-4,5-dihydro-1H-1,2,4-triazol-1-yl}-N-{(2R)-1-hydroxy-3-[3-(trifluoromethyl)phenyl]propan-2-yl}acetamide], the IC50 at human V1a receptor amounted to 4 nM; on human V2 receptor it was 15 nM. For `NC(=O)OCC(CNC(=O)Cn1nc(-c2ccc(Cl)cc2)n(C[C@H](O)C(F)(F)F)c1=O)c1cccc(C(F)(F)F)c1` (single isomer, unassigned) [Example 9] the same measures were 63 nM and 5 nM. Turning to `O=CNC(CNC(=O)Cn1nc(-c2ccc(Cl)cc2)n(C[C@H](O)C(F)(F)F)c1=O)c1cccc(C(F)(F)F)c1` (stereo partly drawn) [Example 36, 2-{3-(4-Chlorophenyl)-5-oxo-4-[(2S)-3,3,3-trifluoro-2-hydroxypropyl]-4,5-dihydro-1H-1,2,4-triazol-1-yl}-N-{2-formamido-2-[3-(trifluoromethyl)phenyl]ethyl}acetamide], the IC50 on human V1a receptor turned out to be 19 nM; on human V2 receptor, 13 nM. Take `CC(C)(C)OC(=O)NC(CNC(=O)Cn1nc(-c2ccc(Cl)cc2)n(C[C@H](O)C(F)(F)F)c1=O)c1cccc(Cl)c1Cl` (single isomer, unassigned) [Example 19]: at human V2 receptor, the IC50 worked out at 11 nM. On to `NC(=O)OC(CNC(=O)Cn1nc(-c2ccc(Cl)cc2)n(C[C@H](O)C(F)(F)F)c1=O)c1ccccc1C(F)(F)F` (single isomer, unassigned) [Example 42], for which the IC50 at human V1a receptor was 8 nM; on human V2 receptor it was 3 nM. For `NC(=O)OC(CNC(=O)Cn1nc(-c2ccc(Cl)cc2)n(Cc2ccccc2F)c1=O)c1ccccc1Cl` (racemic) [Example 57, 1-(2-Chlorophenyl)-2-({[3-(4-chlorophenyl)-4-(2-fluorobenzyl)-5-oxo-4,5-dihydro-1H-1,2,4-triazol-1-yl]acetyl}amino)ethyl carbamate], in that order: 10 nM and 22 nM. `CC(C)(C)OC(=O)NC(CNC(=O)Cn1nc(-c2ccc(Cl)cc2)n(C[C@H](O)C(F)(F)F)c1=O)c1ccccc1C(F)(F)F` (stereo partly drawn) [Example 13, tert-Butyl {2-[({3-(4-chlorophenyl)-5-oxo-4-[(2S)-3,3,3-trifluoro-2-hydroxypropyl]-4,5-dihydro-1H-1,2,4-triazol-1-yl}acetyl)amino]-1-[2-(trifluoromethyl)phenyl]ethyl}carbamate]: the IC50 on human V1a receptor turned out to be 4 nM; at human V2 receptor, 70 nM. Take `CC(=O)NC(C)(CNC(=O)Cn1nc(-c2ccc(Cl)cc2)n(C[C@H](O)C(F)(F)F)c1=O)c1cccc(C(F)(F)F)c1` (single isomer, unassigned) [Example 39]: the IC50 on human V1a receptor stood at 25 nM; on human V2 receptor, 10 nM.

Consider `NC(=O)OCC(CNC(=O)Cn1nc(-c2ccc(Cl)cc2)n(C[C@H](O)C(F)(F)F)c1=O)c1ccccc1C(F)(F)F` (single isomer, unassigned) [Example 2], for which the IC50 at human V1a receptor is 1 nM; on human V2 receptor it was 16 nM. For `COCCn1c(-c2ccc(Cl)s2)nn(CC(=O)NCC(NS(C)(=O)=O)c2ccccc2C(F)(F)F)c1=O` (racemic) [Example 69, 2-[3-(5-Chloro-2-thienyl)-4-(2-methoxyethyl)-5-oxo-4,5-dihydro-1H-1,2,4-triazol-1-yl]-N-{2-[(methylsulphonyl)amino]-2-[2-(trifluoromethyl)phenyl]ethyl}acetamide] the same measures were 130 nM and 3500 nM. For `COCCn1c(-c2ccc(Cl)s2)nn(CC(=O)NCC(NC(=O)OC(C)(C)C)c2ccccc2C(F)(F)F)c1=O` (racemic) [Example 66, tert-Butyl {2-({[3-(5-chloro-2-thienyl)-4-(2-methoxyethyl)-5-oxo-4,5-dihydro-1H-1,2,4-triazol-1-yl]acetyl}amino)-1-[2-(trifluoromethyl)phenyl]ethyl}carbamate] the same measures were 51 nM and 1200 nM.

For the molecule `NC(=O)OC(CNC(=O)Cn1nc(-c2ccc(Cl)cc2)n(CCC(F)(F)F)c1=O)c1ccccc1Cl` (racemic) [Example 59, 1-(2-Chlorophenyl)-2-({[3-(4-chlorophenyl)-5-oxo-4-(3,3,3-trifluoropropyl)-4,5-dihydro-1H-1,2,4-triazol-1-yl]acetyl}amino)ethyl carbamate], the IC50 at human V1a receptor was 14 nM; at human V2 receptor, 48 nM. For `NC(=O)OC(CNC(=O)Cn1nc(-c2ccc(Cl)cc2)n(C[C@H](O)C(F)(F)F)c1=O)c1ccccc1Cl` (stereo partly drawn) [Example 47, 1-(2-Chlorophenyl)-2-[({3-(4-chlorophenyl)-5-oxo-4-[(2S)-3,3,3-trifluoro-2-hydroxypropyl]-4,5-dihydro-1H-1,2,4-triazol-1-yl}acetyl)amino]ethyl carbamate], in that order: 5 nM and 2 nM.
